Data: patent publication US20010020100A1, “N-substituted-1, 2, 4-triazolone compounds for treatment of cardiovascular disorders” (G.D. Searle & Co., priority 1994, published 2001)
Several values for one entry are separate records, joined by “and”; a condition that tells them apart may be missing. Equal values may be shown once.

Columns and labels:
[1] = target: smooth muscle angiotensin II receptor; experiment: Assay A: Angiotensin II Binding Activity (125I-AII displacement, rat uterine membrane preparation); conditions: 50% displacement of specifically bound 125I-AII, rat uterine membranes, 25° C., 60 min
Method: Compounds of the invention were tested for ability to bind to the smooth muscle angiotensin II receptor using a rat uterine membrane preparation. […] Rat uterine membranes were prepared from fresh tissue. All procedures were carried out at 4° C. Uteri were stripped of fat and homogenized in phosphate-buffered saline at pH 7.4 containing 5 mM EDTA. The homogenate was centrifuged at 1500×g for 20 min., and the supernatant was recentrifuged at 100,000×g for 60 min. The pellet was resuspended in buffer consisting of 2 mM EDTA and 50 mM Tris-HCl (pH 7.5) to a final protein concentration of 4 mg/ml. […] The reaction was initiated by the addition of membrane protein and the mixture was incubated at 25° C. for 60 min. The incubation was terminated with ice-cold 50 mM Tris-HCl (pH 7.5) and the mixture was filtered to separate membrane-bound labelled peptide from the free ligand. The incubation tube and filter were washed with ice-cold buffer. Filters were assayed for radioactivity in a Micromedic gamma counter. Nonspecific binding was defined as binding in the presence of 10 μM of unlabelled AII. Specific binding was calculated as total binding minus nonspecific binding. […] Binding data were analyzed by a nonlinear least-squares curve fitting program.

rabbit aortic rings = experiment: Assay B: In Vitro Vascular Smooth Muscle Response for AII (antagonist activity in aortic rings); format: cell-based; conditions: antagonist at 10^-5 M, AII concentration-response curves, Schild calculation; aorta rings from two rabbits, two values per cell
Method: Assay B: In Vitro Vascular Smooth Muscle-Resionse for AII
The compounds of the invention were tested for antagonist activity in rabbit aortic rings. Male New Zealand white rabbits (2-2.5 kg) were sacrificed using an overdose of pentobarbital and exsanguinated via the carotid arteries. The thoracic aorta was removed, cleaned of adherent fat and connective tissue and then cut into 3-mm ring segments. The endothelium was removed from the rings by gently sliding a rolled-up piece of filter paper into the vessel lumen. The rings were then mounted in a water-jacketed tissue bath, maintained at 37° C., between moveable and fixed ends of a stainless steel wire with the moveable end attached to an FT03 Grass transducer coupled to a Model 7D Grass Polygraph for recording isometric force responses. The bath was filled with 20 ml of oxygenated (95% oxygen/5% carbon dioxide) Krebs solution of the following composition (nM) : 130 NaCl, 15 NaHCO3, 15 KCl, 1.2 NaH2PO4, 1.2 MgSO4, 2.5 CaCl2, and 11.4 glucose. […] Angiotensin II concentration-response curves were then recorded (3×10^−10 to 1×10^−5 M). […] The effectiveness of the test compound was expressed in terms of pA2 values and were calculated according to H. O. Schild [Br. J. Pharmacol. Chemother., 2,189-206 (1947)]. […] Each test antagonist was evaluated in aorta rings from two rabbits.

AII pressor response = experiment: Assay C: In Vivo Intraduodenal Pressor Assay Response for AII Antagonists; design: species or system Sprague-Dawley rats; conditions: 30 mg/kg i.d., average of two rats; for Assay C Inhibition: inhibition of AII pressor response, anesthetized ganglion-blocked rats; for Assay C Duration: time from peak percent inhibition to 50% of peak
Method: Assay C: In Vivo Intraduodenal Pressor Assay Response for AII Antagonists
Male Sprague-Dawley rats weighing 225-300 grams were anesthetized with Inactin (100 mg/kg, i.p.) and catheters were implanted into the trachea, femoral artery, femoral vein and duodenum. Arterial pressure was recorded from the femoral artery catheter on a Gould chart recorder (Gould, Cleveland, OH). The femoral vein catheter was used for injections of angiotensin II, mecamylamine and atropine. The tracheal catheter allows for airway patency, and the duodenal catheter was used for intraduodenal (i.d.) administration of test compounds. After surgery, the rats were allowed to equilibrate for 30 minutes. Mecamylamine (3 mg/kg, 0.3 ml/kg) and atropine (400 ug/kg, 0.3 ml/kg) were then given i.v. to produce ganglion blockade. These compounds were administered every 90 minutes throughout the test procedure. Angiotensin II was given in bolus does i.v. (30 ng/kg in saline with 0.5% bovine serum albumin, 0.1 ml/kg) every 10 minutes three times or until the increase in arterial pressure produced was within 3 mmHg for two consecutive AII injections. The last two AII injections were averaged and were taken as the control AII pressor response. Ten minutes after the final control AII injection, the test compound (dissolved in sodium bicarbonate) was administered i.d. at a dose of 30 mg/kg in a volume of 0.2 ml. Angiotensin II injections were then given 5, 10, 20, 30, 45, 60, 75, 90, and 120 minutes after administration of the test compound and response of arterial pressure was monitored. The response to AII was calculated as percent of the control response and then the percent inhibition is calculated as 100 minus the percent control response. Duration of action of a test compound was defined as the time from peak percent inhibition to 50% of peak. One compound at one dose was tested in each rat. Each test compound was tested in two rats and the values for the two rats were averaged.

Row | IC50 [1] | Structure (SMILES) | Assay B PA2 (rabbit aortic rings) | Assay C Inhibition (AII pressor response) | Assay C Duration (AII pressor response)
1 | 101 nM | CCCCc1nn(CCCC)c(=O)n1Cc1ccc(-c2ccccc2C(=O)O)cc1 [Example 1, 4′-[(1,3-dibutyl-4,5-dihydro-5-oxo-1H-1,2,4-triazol-4-yl)methyl] [1,1′-biphenyl]-2-carboxylic acid] | 7.3 and 6.7 | 93% | 60 to 100 min
2 | 4.9 nM | CCCCc1nn(CCCC)c(=O)n1Cc1ccc(-c2ccccc2-c2nnn[nH]2)cc1 [Example 2, 2,5-dibutyl-2,4-dihydro-4-[[2-(1H-tetrazol-5-yl)[1,1′-biphenyl]-4′-yl]methyl]-3H-1,2.4-triazol-3-one] | 9.0 and 9.4 | 100% | >200 min
